Laboratory results from the supplement of paper PMC10307832.

Experiments:
Test in all cases: relative viability (nuclei count vs DMSO), 5 days (fraction); higher = more cells survive
[1] = system: A549
Method in brief: (§1)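 One day after seeding in 1536-well plates, lung cancer cell lines were dosed by pin tool. Dosing was either single-drug or a fixed anchor-drug dose plus five library-drug doses (not always all listed) in √10 steps. After 5 days, nuclei were stained in one fix-and-stain step and counted on 4× images, and relative viability is the nuclei count of treated wells over that of vehicle wells, given as the median of duplicate plates.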

[2] = system: NCI-H1666
Method in brief: as §1

[3] = system: LC-2-ad
Method in brief: as §1

[4] = system: EKVX
Method in brief: as §1

[5] = system: NCI-H1648
Method in brief: as §1

[6] = system: ChaGo-K-1
Method in brief: as §1

[7] = system: NCI-H1703
Method in brief: as §1

Q: `Cc1cn(-c2cc(NC(=O)c3ccc(C)c(Nc4nccc(-c5cccnc5)n4)c3)cc(C(F)(F)F)c2)cn1` [Nilotinib] + Nc1ncn([C@H]2C[C@H](O)[C@@H](CO)O2)c(=O)n1 [Decitabine] (partner 2 µM) was tested. Which relative viability ([1]; first compound 0.001 µM) did it give?
A: 0.199

Q: What about the relative viability ([1]; first compound 0.01 µM) of the same compound?
A: 0.386

Q: What about the relative viability ([1]; first compound 0.03162 µM) of the same compound?
A: 0.198

Q: What about the relative viability ([1]; first compound 0.1 µM) of the same compound?
A: 0.116

Q: And the relative viability ([2]; first compound 0.001 µM)?
A: 0.698

Q: And the relative viability ([2]; first compound 0.01 µM)?
A: 0.697

Q: What about the relative viability ([2]; first compound 0.03162 µM) of the same compound?
A: 0.606

Q: And the relative viability ([2]; first compound 0.1 µM)?
A: 0.613

Q: What about the relative viability ([3]; first compound 0.001 µM) of the same compound?
A: 0.8

Q: What about the relative viability ([3]; first compound 0.003162 µM) of the same compound?
A: 0.982

Q: And the relative viability ([3]; first compound 0.01 µM)?
A: 0.796

Q: And the relative viability ([3]; first compound 0.03162 µM)?
A: 0.859

Q: And the relative viability ([3]; first compound 0.1 µM)?
A: 0.803

Q: And the relative viability ([4]; first compound 0.001 µM)?
A: 0.307

Q: And the relative viability ([4]; first compound 0.003162 µM)?
A: 0.413

Q: What about the relative viability ([4]; first compound 0.01 µM) of the same compound?
A: 0.394

Q: And the relative viability ([4]; first compound 0.03162 µM)?
A: 0.305

Q: What about the relative viability ([4]; first compound 0.1 µM) of the same compound?
A: 0.648

Q: What about the relative viability ([5]; first compound 0.001 µM) of the same compound?
A: 0.588

Q: What about the relative viability ([5]; first compound 0.003162 µM) of the same compound?
A: 0.496

Q: And the relative viability ([5]; first compound 0.01 µM)?
A: 0.476

Q: What about the relative viability ([5]; first compound 0.03162 µM) of the same compound?
A: 0.497

Q: And the relative viability ([5]; first compound 0.1 µM)?
A: 0.469

Q: And the relative viability ([6]; first compound 0.001 µM)?
A: 0.528

Q: And the relative viability ([6]; first compound 0.003162 µM)?
A: 0.584

Q: And the relative viability ([6]; first compound 0.01 µM)?
A: 0.585

Q: And the relative viability ([6]; first compound 0.03162 µM)?
A: 0.519

Q: What about the relative viability ([6]; first compound 0.1 µM) of the same compound?
A: 0.577

Q: What does the source list for `CCNC(=O)c1noc(-c2cc(C(C)C)c(O)cc2O)c1-c1ccc(CN2CCOCC2)cc1` [Luminespib] + NC(=O)Nc1cc(-c2cccc(F)c2)sc1C(=O)N[C@H]1CCCNC1 [AZD7762] (partner 0.2 µM)?
A: relative viability ([2]; first compound 0.002 µM): 0.828; relative viability ([2]; first compound 0.006325 µM): 0.835; relative viability ([2]; first compound 0.02 µM): 0.903; relative viability ([2]; first compound 0.06325 µM): 0.78; relative viability ([2]; first compound 0.2 µM): 0.589; relative viability ([3]; first compound 0.002 µM): 0.802; relative viability ([3]; first compound 0.006325 µM): 0.854; relative viability ([3]; first compound 0.02 µM): 0.833; relative viability ([3]; first compound 0.06325 µM): 0.146; relative viability ([3]; first compound 0.2 µM): 0.16; relative viability ([7]; first compound 0.002 µM): 0.146; relative viability ([7]; first compound 0.006325 µM): 0.114; relative viability ([7]; first compound 0.02 µM): 0.149; relative viability ([7]; first compound 0.06325 µM): 0.115; relative viability ([7]; first compound 0.2 µM): 0.114; relative viability ([4]; first compound 0.002 µM): 0.669; relative viability ([4]; first compound 0.006325 µM): 0.68; relative viability ([4]; first compound 0.02 µM): 0.475; relative viability ([4]; first compound 0.06325 µM): 0.239; relative viability ([4]; first compound 0.2 µM): 0.104; relative viability ([5]; first compound 0.002 µM): 0.529; relative viability ([5]; first compound 0.006325 µM): 0.603; relative viability ([5]; first compound 0.02 µM): 0.875; relative viability ([5]; first compound 0.06325 µM): 0.702; relative viability ([5]; first compound 0.2 µM): 0.286; relative viability ([6]; first compound 0.002 µM): 0.9; relative viability ([6]; first compound 0.006325 µM): 0.905; relative viability ([6]; first compound 0.02 µM): 0.799; relative viability ([6]; first compound 0.06325 µM): 0.515; relative viability ([6]; first compound 0.2 µM): 0.172

Q: Which results are given for `Cc1csc(=NC2CCCCC2)n1/N=C/c1ccc(O)c(O)c1O` [MIM1] + NC(=O)Nc1cc(-c2cccc(F)c2)sc1C(=O)N[C@H]1CCCNC1 [AZD7762] (partner 0.2 µM)?
A: relative viability ([2]; first compound 0.2 µM): 0.862; relative viability ([2]; first compound 0.6325 µM): 0.789; relative viability ([2]; first compound 2 µM): 0.829; relative viability ([2]; first compound 6.325 µM): 0.7; relative viability ([2]; first compound 20 µM): 0.519; relative viability ([3]; first compound 0.2 µM): 0.804; relative viability ([3]; first compound 0.6325 µM): 0.706; relative viability ([3]; first compound 2 µM): 0.9; relative viability ([3]; first compound 6.325 µM): 0.389; relative viability ([3]; first compound 20 µM): 0.234; relative viability ([7]; first compound 0.2 µM): 0.124; relative viability ([7]; first compound 0.6325 µM): 0.134; relative viability ([7]; first compound 2 µM): 0.107; relative viability ([7]; first compound 6.325 µM): 0.112; relative viability ([7]; first compound 20 µM): 0.122; relative viability ([4]; first compound 0.2 µM): 0.697; relative viability ([4]; first compound 0.6325 µM): 0.616; relative viability ([4]; first compound 2 µM): 0.625; relative viability ([4]; first compound 6.325 µM): 0.599; relative viability ([4]; first compound 20 µM): 0.44; relative viability ([5]; first compound 0.2 µM): 0.615; relative viability ([5]; first compound 0.6325 µM): 0.718; relative viability ([5]; first compound 2 µM): 0.679; relative viability ([5]; first compound 6.325 µM): 0.677; relative viability ([5]; first compound 20 µM): 0.436; relative viability ([6]; first compound 0.2 µM): 0.869; relative viability ([6]; first compound 0.6325 µM): 0.883; relative viability ([6]; first compound 2 µM): 0.907; relative viability ([6]; first compound 6.325 µM): 0.596; relative viability ([6]; first compound 20 µM): 0.248

Q: For `Cc1cn(-c2cc(NC(=O)c3ccc(C)c(Nc4nccc(-c5cccnc5)n4)c3)cc(C(F)(F)F)c2)cn1` [Nilotinib] + CC(=O)c1c(C)c2cnc(Nc3ccc(N4CCNCC4)cn3)nc2n(C2CCCC2)c1=O [Palbociclib] (partner 0.5 µM), which relative viability ([2]; first compound 0.001 µM) is on record?
A: 0.62

Q: And the relative viability ([2]; first compound 0.003162 µM)?
A: 0.673

Q: What about the relative viability ([2]; first compound 0.01 µM) of the same compound?
A: 0.588

Q: And the relative viability ([2]; first compound 0.03162 µM)?
A: 0.583

Q: What about the relative viability ([2]; first compound 0.1 µM) of the same compound?
A: 0.65

Q: And the relative viability ([3]; first compound 0.001 µM)?
A: 0.535

Q: And the relative viability ([3]; first compound 0.003162 µM)?
A: 0.605

Q: What about the relative viability ([3]; first compound 0.01 µM) of the same compound?
A: 0.561

Q: What about the relative viability ([3]; first compound 0.03162 µM) of the same compound?
A: 0.466

Q: What about the relative viability ([3]; first compound 0.1 µM) of the same compound?
A: 0.502

Q: And the relative viability ([4]; first compound 0.001 µM)?
A: 0.372

Q: And the relative viability ([4]; first compound 0.003162 µM)?
A: 0.492

Q: And the relative viability ([4]; first compound 0.01 µM)?
A: 0.479

Q: What about the relative viability ([4]; first compound 0.03162 µM) of the same compound?
A: 0.379

Q: And the relative viability ([4]; first compound 0.1 µM)?
A: 0.62

Q: And the relative viability ([5]; first compound 0.001 µM)?
A: 0.244

Q: What about the relative viability ([5]; first compound 0.003162 µM) of the same compound?
A: 0.319

Q: And the relative viability ([5]; first compound 0.01 µM)?
A: 0.294

Q: What about the relative viability ([5]; first compound 0.03162 µM) of the same compound?
A: 0.254

Q: What about the relative viability ([5]; first compound 0.1 µM) of the same compound?
A: 0.268

Q: What about the relative viability ([6]; first compound 0.001 µM) of the same compound?
A: 0.898

Q: And the relative viability ([6]; first compound 0.003162 µM)?
A: 1.25

Q: And the relative viability ([6]; first compound 0.01 µM)?
A: 1.06

Q: What about the relative viability ([6]; first compound 0.03162 µM) of the same compound?
A: 0.873

Q: And the relative viability ([6]; first compound 0.1 µM)?
A: 0.894
